Data from PubChem BioAssay (NCI).
“And” between values parts separate entries of the source, which are not always exact repeats. Identical values can stand only once.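 The compound was tested at five concentrations on cells cultured in 96-well plates, with a 48-hour exposure period. At the GI50, growth is halved. TGI is the concentration that stops growth completely.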

Key:
Assay in all cases: DTP human tumour cell line panel, 48 h
[1] = system: BT-549 breast
[2] = system: DMS 273 small cell lung
[3] = system: DU-145 prostate
[4] = system: HCT-116 colon
[5] = system: HL-60(TB) leukemia
[6] = system: HT29 colon
[7] = system: MDA-MB-231 breast
[8] = system: NCI-H460 lung
[9] = system: SK-MEL-2 melanoma
[10] = system: SNB-78 CNS

Structure (SMILES) | GI50 [1] [nM] | TGI [1] [nM] | GI50 [2] [nM] | TGI [2] | GI50 [3] [nM] | TGI [3] [nM] | GI50 [4] | TGI [4] | GI50 [5] | GI50 [6] | TGI [6] | GI50 [7] [nM] | TGI [7] [nM] | GI50 [8] | TGI [8] | GI50 [9] | TGI [9] | GI50 [10] | TGI [5] [nM] | TGI [10] [nM]
CC1[C@@H]2CC=C3[C@H]4CCC5Cc6nc7c(nc6C[C@@]5(C)C4CC(=O)[C@]32CO[C@]12OC(C)(C)CC2O)CC1CC[C@@H]2C3=C[C@H]4O[C@@]5(O[C@@](C)(CO)C[C@@H]5O)C(C)[C@@]4(O)[C@]3(C)[C@@H](O)CC2[C@]1(C)C7 (some centres undefined) | 0.751 | 363 | 0.365 | 0.328 nM and 0.802 nM | 53.8 | 716 | 0.846 nM and 2.81 nM | 83.7 nM and 532 nM | 0.355 nM and 0.365 nM | 2.82 nM and 1.52 nM | 48.7 nM and 27 nM | 1.21 | 284 | 0.268 nM and 0.365 nM | 13 nM and 116 nM | 1.1 nM and 2.08 nM | 24.2 nM and 69.9 nM | 0.777 nM and 3.29 nM |  | 
O=C(CC1(O)C(=O)Nc2ccccc21)c1ccccc1O (centres undefined) |  |  |  | > 100000 nM |  |  |  | > 100000 nM |  |  | > 100000 nM |  |  |  | > 100000 nM |  | > 100000 nM |  | > 100000 | > 100000
CCc1ccccc1NC(=O)C(=O)C1C(=O)N(c2ccccc2)N=C1N (centres undefined) |  |  |  | > 100000 nM |  |  |  | > 100000 nM |  |  | > 100000 nM |  |  |  | > 100000 nM |  | > 100000 nM |  | > 100000 | > 100000
CC1C(O)=C(O)c2ccccc2N1O (centres undefined) |  |  |  | > 100000 nM |  |  |  | > 100000 nM |  |  | > 100000 nM |  |  |  | > 100000 nM |  | > 100000 nM |  | > 100000 | > 100000
